Experimental data as given in publication PMC10343464, “Identification and characterization of a novel aminoglycoside O-nucleotidyltransferase ANT(6)-If from Paenibacillus thiaminolyticus PATH554” (Frontiers in Microbiology, 2023).

Test system: T1, ANT(6)-If
T1 construct: full-length ORF (855 bp, TTG start codon); 284 residues; His6 tag removed with thrombin; likely homodimer by clear-native PAGE
Assay: coupled UDP-glucose pyrophosphorylase / phosphoglucomutase / G6PDH assay, NADPH at […] nm
Assay type: biochemical, Paenibacillus thiaminolyticus
Conditions: 1 mM ATP, 10 mM MgCl2, 50 mM HEPES pH 7.5; temperature not given

CN[C@@H]1[C@H](O[C@H]2[C@H](O[C@H]3[C@H](O)[C@@H](O)[C@H](N=C(N)N)[C@@H](O)[C@@H]3N=C(N)N)O[C@@H](C)[C@]2(O)C=O)O[C@@H](CO)[C@H](O)[C@H]1O [streptomycin]
Km: 12.4 µM
